Assay results published in patent publication US8207216B2, “Benzofuran-3-yl(indol-3-yl) maleimides as potent GSK3 inhibitors” (The Board of Trustees of the University of Illinois, priority 2006, dated 2012).

Target: T1, recombinant human His6-GSK-3β (Homo sapiens, UniProt P49841)
T1 construct: His6; purchased EMD Biosciences
Experiment: GSK-3β kinase assay, [γ32P] transfer to primed glycogen synthase peptide;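 further: phosphate incorporation quantified by liquid scintillation counting of the filters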
Type: biochemical
Conditions: not given

T1 sequence (P49841 whole entry): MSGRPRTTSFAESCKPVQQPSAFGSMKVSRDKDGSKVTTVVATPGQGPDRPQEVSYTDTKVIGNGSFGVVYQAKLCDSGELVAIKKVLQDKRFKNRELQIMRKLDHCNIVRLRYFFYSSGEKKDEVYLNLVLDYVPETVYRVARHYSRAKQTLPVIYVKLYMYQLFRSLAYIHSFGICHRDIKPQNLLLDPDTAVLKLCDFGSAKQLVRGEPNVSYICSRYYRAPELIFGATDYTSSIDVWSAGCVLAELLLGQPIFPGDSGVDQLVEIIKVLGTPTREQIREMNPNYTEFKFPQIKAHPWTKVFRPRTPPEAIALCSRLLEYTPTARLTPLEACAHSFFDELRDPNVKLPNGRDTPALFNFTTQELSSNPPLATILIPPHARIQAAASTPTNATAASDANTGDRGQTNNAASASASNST

Molecule	Ki [nM]
3-(6-Chloro-5-methoxy-1-methyl-1H-indol-3-yl)-4-(6-methoxy-benzofuran-3-yl)-pyrrole-2,5-dione [Compound 14]	580

Same assay, conditions: 10 μM ATP; 10 μM pGSM peptide; 30 minutes at 30° C.; read-out: IC50 (nM), GSK-3β inhibition

Molecule	IC50 [nM]
3-(6-Chloro-5-methoxy-1-methyl-1H-indol-3-yl)-4-(6-methoxy-benzofuran-3-yl)-pyrrole-2,5-dione [Compound 14]	870 ± 160
O=C1NC(=O)C(c2coc3ccc(F)cc23)=C1c1c[nH]c2ccccc12 [Compound 2, 3-(5-Fluoro-benzofuran-3-yl)-4-(1H-indol-3-yl)-pyrrole-2,5-dione]	670 ± 40
Cn1cc(C2=C(c3coc4ccc(Br)cc34)C(=O)NC2=O)c2ccccc21 [Compound 3, 3-(5-Bromo-benzofuran-3-yl)-4-(1-methyl-1H-indol-3-yl)-pyrrole-2,5-dione]	550 ± 20
COc1cccc2c(C3=C(c4cn(C)c5ccccc45)C(=O)NC3=O)coc12 [Compound 4, 3-(7-Methoxy-benzofuran-3-yl)-4-(1-methyl-1H-indol-3-yl)-pyrrole-2,5-dione]	180 ± 15
O=C1NC(=O)C(c2coc3ccccc23)=C1c1c[nH]c2ccc(F)cc12 [Compound 5, 3-Benzofuran-3-yl-4-(5-fluoro-1H-indol-3-yl)-pyrrole-2,5-dione]	360 ± 40
Cn1cc(C2=C(c3coc4ccccc34)C(=O)NC2=O)c2cc(F)ccc21 [Compound 6, 3-Benzofuran-3-yl-4-(5-fluoro-1-methyl-1H-indol-3-yl)-pyrrole-2,5-dione]	26 ± 6
Cn1cc(C2=C(c3coc4cc(O)ccc34)C(=O)NC2=O)c2cc(F)ccc21 [Compound 9, 3-(5-Fluoro-1-methyl-1H-indol-3-yl)-4-(6-hydroxy-benzofuran-3-yl)-pyrrole-2,5-dione]	3.5 ± 1.3
COc1cccc2c(C3=C(c4cn(C)c5cc(Br)c(F)cc45)C(=O)NC3=O)coc12 [Compound 11, 3-(6-Bromo-5-fluoro-1-methyl-1H-indol-3-yl)-4-(7-methoxy-benzofuran-3-yl)-pyrrole-2,5-dione]	59.7 ± 6.57
COc1cccc2c(C3=C(c4cn(C)c5cc(-c6ccc(Cl)cc6)c(F)cc45)C(=O)NC3=O)coc12 [Compound 18, 3-[6-(4-Chlorophenyl)-5-fluoro-1-methyl-1H-indol-3-yl]-4-(7-methoxy-benzofuran-3-yl)-pyrrole-2,5-dione]	7160 ± 1200
C=CCOc1ccc2c(C3=C(c4cn(C)c5ccc(Br)cc45)C(=O)NC3=O)coc2c1 [Compound 24, 3-(6-Allyloxy-benzofuran-3-yl)-4-(5-bromo-1-methyl-1H-indol-3-yl)-pyrrole-2,5-dione]	48.3 ± 7
COc1ccc(COc2ccc3c(C4=C(c5cn(C)c6ccc(Br)cc56)C(=O)NC4=O)coc3c2)cc1 [Compound 25, 3-(5-Bromo-1-methyl-1H-indol-3-yl)-4-[6-(4-methoxy-benzyloxy)-benzofuran-3-yl]-pyrrole-2,5-dione]	335 ± 37
COc1cccc2c(C3=C(c4cn(C)c5c(Br)cc(Br)cc45)C(=O)NC3=O)coc12 [Compound 26, 3-(5,7-Dibromo-1-methyl-1H-indol-3-yl)-4-(7-methoxy-benzofuran-3-yl)-pyrrole-2,5-dione]	88.7 ± 5.6
Cn1cc(C2=C(c3coc4ccc(F)cc34)C(=O)NC2=O)c2cc(I)ccc21 [Compound 29, 3-(5-Fluoro-benzofuran-3-yl)-4-(5-iodo-1-methyl-1H-indol-3-yl)-pyrrole-2,5-dione]	180 ± 11
Cn1cc(C2=C(c3coc4ccccc34)C(=O)NC2=O)c2cc(O)ccc21 [Compound 30, 3-Benzofuran-3-yl-4-(5-hydroxy-1-methyl-1H-indol-3-yl)-pyrrole-2,5-dione]	690 ± 100
Cn1cc(C2=C(c3coc4ccccc34)C(=O)NC2=O)c2cc(OCc3ccccc3)ccc21 [Compound 31, 3-Benzofuran-3-yl-4-(5-benzyloxy-1-methyl-1H-indol-3-yl)-pyrrole-2,5-dione]	500 ± 60
O=C1NC(=O)C(c2cn(CCCO)c3ccc(OCc4ccccc4)cc23)=C1c1coc2ccccc12 [Compound 32, 3-Benzofuran-3-yl-4-[5-benzyloxy-1-(3-hydroxy-propyl)-1H-indol-3-yl]-pyrrole-2,5-dione]	220 ± 30

Molecule	IC50 [nM]
Cn1cc(C2=C(c3coc4cc(CO)ccc34)C(=O)NC2=O)c2cc(C#N)ccc21 [Compound 34, 3-[4-(6-Hydroxymethyl-benzofuran-3-yl)-2,5-dioxo-2,5-dihydro-1H-pyrrol-3-yl]-1-methyl-1H-indole-5-carbonitrile]	13.2 ± 3.2
Cn1cc(C2=C(c3coc4ccccc34)C(=O)NC2=O)c2cc(N3CCOCC3)ccc21 [Compound 39, 3-Benzofuran-3-yl-4-(1-methyl-5-morpholin-4-yl-1H-indol-3-yl)-pyrrole-2,5-dione]	1300 ± 146
COc1ccc2c(c1)c(C1=C(c3coc4ccccc34)C(=O)NC1=O)cn2C [Compound 41, 3-Benzofuran-3-yl-4-(5-methoxy-1-methyl-1H-indol-3-yl)-pyrrole-2,5-dione]	125 ± 35
COc1cc2c(C3=C(c4coc5ccccc45)C(=O)NC3=O)cn(C)c2cc1I [Compound 43, 3-Benzofuran-3-yl-4-(6-iodo-5-methoxy-1-methyl-1H-indol-3-yl)-pyrrole-2,5-dione]	223 ± 22
O=C1NC(=O)C(c2coc3ccccc23)=C1c1c[nH]c2ccc(OCc3ccccc3)cc12 [Compound 44, 3-Benzofuran-3-yl-4-(5-benzyloxy-1H-indol-3-yl)-pyrrole-2,5-dione]	1650 ± 200
Cn1cc(C2=C(c3coc4ccccc34)C(=O)NC2=O)c2ccc(OCc3ccccc3)cc21 [Compound 47, 3-Benzofuran-3-yl-4-(6-benzyloxy-1-methyl-1H-indol-3-yl)-pyrrole-2,5-dione]	900 ± 80
Cn1cc(C2=C(c3coc4ccc(F)cc34)C(=O)NC2=O)c2ccc(OCc3ccccc3)cc21 [Compound 48, 3-(6-Benzyloxy-1-methyl-1H-indol-3-yl)-4-(5-fluoro-benzofuran-3-yl)-pyrrole-2,5-dione]	160 ± 35
Cn1cc(C2=C(c3coc4ccccc34)C(=O)NC2=O)c2cccc(CO)c21 [Compound 50, 3-Benzofuran-3-yl-4-(7-hydroxymethyl-1-methyl-1H-indol-3-yl)-pyrrole-2,5-dione]	5.4 ± 0.7
Cn1cc(C2=C(c3coc4cc(CO)ccc34)C(=O)NC2=O)c2cccc(CO)c21 [Compound 51, 3-(6-Hydroxymethyl-benzofuran-3-yl)-4-(7-hydroxymethyl-1-methyl-1H-indol-3-yl)-pyrrole-2,5-dione]	5.1 ± 1.2
Cn1cc(C2=C(c3coc4ccccc34)C(=O)NC2=O)c2cccc(O)c21 [Compound 53, 3-Benzofuran-3-yl-4-(7-hydroxy-1-methyl-1H-indol-3-yl)-pyrrole-2,5-dione]	55 ± 8
Cn1cc(C2=C(c3coc4ccccc34)C(=O)NC2=O)c2cccc(OCc3ccccc3)c21 [Compound 54, 3-Benzofuran-3-yl-4-(7-benzyloxy-1-methyl-1H-indol-3-yl)-pyrrole-2,5-dione]	220 ± 45
CN1C(=O)C(c2coc3cc(CO)ccc23)=C(c2cn(C)c3ccc(F)cc23)C1=O [Compound 56, 3-(5-Fluoro-1-methyl-1H-indol-3-yl)-4-(6-hydroxymethyl-benzofuran-3-yl)-1-methyl-pyrrole-2,5-dione]	0.35 ± 0.06
Cn1cc(C2=C(c3coc4ccccc34)C(=O)NC2=O)c2cccc(CCC(=O)O)c21 [Compound 86]	1.2 ± 0.2
COCc1cccc2c(C3=C(c4coc5cc(CO)ccc45)C(=O)NC3=O)cn(C)c12 [Compound 92]	0.73 ± 0.1
CCOC(=O)CCc1cccc2c(C3=C(c4coc5ccccc45)C(=O)NC3=O)cn(C)c12 [Compound 93]	10.2 ± 3.6

Tested on: MIAPaCa-2
Experiment: Antiproliferation MTS assay, pancreatic cancer cells
Type: cell-based
Conditions: Homo sapiens, MIA PaCa-2; 72 hrs, MTS

Molecule	IC50 [nM]
O=C1NC(=O)C(c2coc3ccccc23)=C1c1c[nH]c2ccc(F)cc12 [Compound 5, 3-Benzofuran-3-yl-4-(5-fluoro-1H-indol-3-yl)-pyrrole-2,5-dione]	21000
O=C1NC(=O)C(c2coc3ccccc23)=C1c1c[nH]c2ccc(OCc3ccccc3)cc12 [Compound 44, 3-Benzofuran-3-yl-4-(5-benzyloxy-1H-indol-3-yl)-pyrrole-2,5-dione]	21000
Cn1cc(C2=C(c3coc4ccc(F)cc34)C(=O)NC2=O)c2ccc(OCc3ccccc3)cc21 [Compound 48, 3-(6-Benzyloxy-1-methyl-1H-indol-3-yl)-4-(5-fluoro-benzofuran-3-yl)-pyrrole-2,5-dione]	80000
